Literature values in patent US20180016637A1, “METHOD OF EVALUATING THE RESPONSE OF ATAXIA TELANGIECTASIA PATIENTS TO GLUCOCORTICOIDS TREATMENT” (EryDel S.p.A., priority 2015, published 2018).

Test system: lymphoblastoid cell lines from lymphocytes of A-T patients

For `C[C@@H]1C[C@H]2[C@@H]3CCC4=CC(=O)C=C[C@]4(C)[C@@]3(F)[C@@H](O)C[C@]2(C)[C@@]1(O)C(=O)COP(=O)(O)O` [Dexamethasone sodium phosphate], the “transcript induced in vitro” value is given as “a transcript of about 1582 bp denominated ATMdexa1”.
